Results as given in patent US11547681B2, “N-acylethanolamide derivatives and uses thereof” (ELIEM THERAPEUTICS, INC., priority 2016, dated 2023).

Assay: in vitro
Conditions: for Concentration, analyte PEA / % Remaining of Initial (n = 1) / microsomal CLint at 1 μM / half-life at 1 μM / Measured concentration of PEA (analyte) / % Remaining of Initial / microsomal CLint / half-life: male, Sprague-Dawley, rat; for Concentration, analyte PEA / % Remaining of Initial (n = 1) / Measured concentration of PEA (analyte) / % Remaining of Initial: 1 μM
Protocol: The reaction mixture, minus cofactors, was prepared as described below. The test article was added into the reaction mixture at a final concentration of 1 μM. […] An aliquot of the reaction mixture (without cofactor cocktail) was equilibrated in a shaking water bath at 37° C. for 3 minutes. The reaction was initiated by the addition of cofactor cocktail, and the mixture was incubated in a shaking water bath at 37° C. Aliquots (100 μL) were withdrawn at 0, 10, 20, 30, and 60 minutes. All samples were immediately combined with 400 uL of icecold 50/50 acetonitrile/H2O containing 0.1% formic acid and internal standard to terminate the reaction. The samples were then mixed and centrifuged to precipitate proteins. Calibration standards were prepared in matched matrix. All samples and standards were assayed by LC-MS/MS using electrospray ionization for both the dosed prodrug I-9 and the expected drug (PEA). Analytical conditions are outlined in Appendix 4-1. The test article concentration at each time point was compared to the test article concentration at time 0 to determine the percent remaining at each time point. Half-lives were calculated using GraphPad software, fitting to single-phase exponential decay equation.
(§1) Reaction mixture, minus cofactors, was prepared as described below. Test article was added into the reaction mixture at a final concentration of 1 μM. […] An aliquot of the reaction mixture (without cofactor cocktail) was equilibrated in a shaking water bath at 37° C. for 3 minutes. The reaction was initiated by the addition of cofactor cocktail, and the mixture was incubated in a shaking water bath at 37° C. Aliquots (100 μL) were withdrawn at 0, 10, 20, 30, and 60 minutes. Test article samples were immediately combined with 300 μL of ice-cold acetonitrile containing 1% formic acid. Control samples were immediately combined with 400 μL of ice-cold 50/50 acetonitrile (ACN)/dH2O containing 0.1% formic acid and internal standard to terminate the reaction. Samples were then mixed and centrifuged to precipitate proteins. Calibration standards were prepared in matched matrix. Samples and standards were assayed by LC-MS/MS using electrospray ionization for both the dosed prodrug and the expected drug (PEA). Analytical conditions are outlined in Appendix 8-1. Test article concentration at each time point was compared to test article concentration at time 0 to determine the percent remaining at each time point. Halflives were calculated using GraphPad software, fitting to a single-phase exponential decay equation.
as §1, with “for 5” for “for 3”, “minutes. Reaction” for “minutes. The reaction”, “and” for “and the”, “both” for “both the”, “Appendix 10-1.” for “Appendix 8-1.”
Reaction mixture, minus cofactors, was prepared as described below.

[1] = control compound, rat intestinal S9 fraction

SMILES: CCCCC/C=C\C/C=C\CCCCCCCC(=O)OCC(COC(=O)CCC(=O)OCCNC(=O)CCCCCCCCCCCCCCC)OC(=O)CCCCCCC/C=C\C/C=C\CCCCC (stereo not shown) [Compound I-13]
- Concentration, analyte PEA (0 min): 0 nM
- Concentration, analyte PEA (10 min): 20 nM
- Concentration, analyte PEA (20 min): 48 nM
- Concentration, analyte PEA (30 min): 64 nM
- Concentration, analyte PEA (60 min): 92 nM
- % Remaining of Initial (n = 1) (s9, 0 h): 100%
- % Remaining of Initial (n = 1) (s9, 10 min): 80%
- % Remaining of Initial (n = 1) (s9, 20 min): 82%
- % Remaining of Initial (n = 1) (s9, 0.5 h): 81%
- % Remaining of Initial (n = 1) (s9, 1 h): 55%
- microsomal CLint at 1 μM (s9, CLint): < 11.6 µL/min/mg
- microsomal CLint at 1 μM (s9, CLint, calculated (in parentheses)): 8.59 µL/min/mg
- half-life at 1 μM (s9, Half-life): > 1 h
- half-life at 1 μM (s9, Half-life, calculated (in parentheses)): 1.35 h

SMILES: CCCCCCCCCCCCCCCC(=O)NCCOC(=O)CCC(=O)OC(COC(=O)CCC)COC(=O)CCC [Compound I-16]
- Measured concentration of PEA (analyte) (0 min): 0 µM
- Measured concentration of PEA (analyte) (10 min): 0.20 µM
- Measured concentration of PEA (analyte) (20 min): 0.28 µM
- Measured concentration of PEA (analyte) (30 min): 0.34 µM
- Measured concentration of PEA (analyte) (60 min): 0.38 µM
- % Remaining of Initial (s9, 0 h): 100%
- % Remaining of Initial (s9, 10 min): <1.0%
- % Remaining of Initial (s9, 20 min): <1.0%
- % Remaining of Initial (s9, 0.5 h): <1.0%
- % Remaining of Initial (s9, 1 h): <1.0%
- microsomal CLint at 1 μM (s9, CLint): > 691 µL/min/mg
- half-life at 1 μM (s9, Half-life): < 0.0167 h

SMILES: C[C@]12CC[C@H]3[C@@H](CCC4=CC(=O)CC[C@@]43C)[C@@H]1CC[C@@H]2O [Testosterone, testosterone, reference compound]
- CLin [1]: < 0.0116 ml/min/mg protein
- CLin, calculated value in parentheses [1]: 0.0068 ml/min/mg protein
- microsomal CLint (s9, CLint (ml/min/mg protein), calculated value in parentheses, control compound, rat intestinal S9 fraction, calculated value beyond duration of experiment): 6.52 µL/min/mg
- microsomal CLint (s9, CLint (ml/min/mg protein), control compound, rat intestinal S9 fraction): < 11.6 µL/min/mg
- microsomal CLint (s9, CLint, Control Compound, Rat intestinal S9 fraction): < 11.6 µL/min/mg
- microsomal CLint (s9, CLint, Rat intestinal S9 fraction, control compound): < 11.6 µL/min/mg
- microsomal CLint (s9, Clint, control compound, Example 4 control run): 5.97 µL/min/mg
- half-life (s9, Half-life (min), calculated value in parentheses, control compound, rat intestinal S9 fraction, calculated value beyond duration of experiment): 1.77 h
- half-life (s9, Half-life (min), control compound, rat intestinal S9 fraction): > 1 h
- half-life (s9, Half-life, Control Compound, Rat intestinal S9 fraction): > 1 h
- half-life at 1 μM (s9, Half-life, Rat intestinal S9 fraction): > 1 h
- half-life (s9, Half-life, calculated value in parentheses, control compound, rat intestinal S9 fraction): 1.7 h
- half-life (s9, Half-life, control compound, Example 4 control run): 1.93 h
- half-life (s9, Half-life, control compound, rat intestinal S9 fraction): > 1 h
